In brackets after ≈: the same amount, converted by molar mass.
Tests used:
[1] = Microsomal stability assay, mouse CLint; assay type: in vitro ADME; set-up: unit not given here; details: mouse liver microsomes, 1 μM, 0.5 mg/ml microsomal protein
Protocol: The activity profiles of compounds 17, 23, and 24 were assessed by various in vitro measurements. The minimum inhibitory concentration (MIC), MIC in the presence of normal human serum (NHS), microsome CLint, the % of free compounds following a plasma protein biding (PPB) assay, and the concentration of drug where the human-ether-à-go-go-related gene (hERG gene) channel block is halved (IC50(hERG)) were measured using standard in vitro protocols for compounds 17, 23, and 24. Unless otherwise indicated, measurements (e.g., microsomal clearance) were performed using a standard microsomal stability assay using LC/MS/MS techniques.
Test compounds were incubated at 37° C. with liver microsomes pooled from multiple donors at 1 μM in the presence of a NADPH regenerating system at 0.5 mg/ml microsomal protein. Positive of testosterone (a 3A4 substrate), propafenone (a 2D6 substrate), and diclofenac (a 2c9 substrate) were similarly incubated with microsomes in the presence of a NADPH regenerating system. Samples are removed at 0, 5, 10, 20, 30, and 60 minutes of incubation and immediately mixed with cold acetonitrile containing an internal standard (IS). Samples are then analyzed by LC/MS/MS to determine the disappearance of the test compound and are assessed based on the peak area ratios of analyte/IS (no standard curve).

[2] = system: Escherichia coli ATCC-BAA-2340; experiment: MIC (50% NHS); assay type: cell-based; details: ATCCBAA2340; Escherichia coli ATCC-BAA-2340, 50% NHS
[3] = system: Enterobacter cloacae ATCC-222; experiment: MIC (50% NHS); assay type: cell-based; details: ATCC222; Enterobacter cloacae ATCC-222, 50% NHS
[4] = system: Serratia marcescens Bizio ATCC-29021; experiment: MIC (50% NHS); assay type: cell-based; details: ATCC29021; Serratia marcescens Bizio ATCC-29021, 50% NHS
[5] = system: Proteus mirabilis ATCC-29906; experiment: MIC (50% NHS); assay type: cell-based; details: ATCC29906; Proteus mirabilis ATCC-29906, 50% NHS
[6] = system: Staphylococcus aureus NRS-100; experiment: MIC (50% NHS); assay type: cell-based; details: NRS100; Staphylococcus aureus NRS-100, 50% NHS
in vivo = experiment: in vivo; set-up: species or system mice; details: mouse, iv, 10 mg/kg; for half-life: T1/2
Protocol: Compounds were tested in a pharmacokinetic (“PK”) study to determine the T1/2 of test compounds in mice. The PK study was performed at an approved contract research organization. Each test compound was dissolved in a vehicle to make a test antibiotic composition. The vehicle may be, for example, a water or a 5% solutol in saline solution Administration to each mouse is performed via intravenous (IV) cannulation of the tail vein. Blood is collected over K2-EDTA anticoagulant from the submandibular or sapheneous vein at predetermined time points. Following collection, the blood samples are stored at −70° C. until analysis by LC-MS and comparison to a standard calibration curve results in the T1/2 for each compound. The blood concentration of test compounds was measured at various times following 10 mg/kg (mouse) intravenous (IV) administration of each tested compound. […] The T1/2 for compound 17 was 34.2 hours, for compound 23 was 22.0 hours, and for compound 24 was 22.5 hours.

[7] = system: Escherichia coli ATCC 25922; experiment: Deep thigh infection model in neutropenic mice, CFU count; assay type: in vivo; details: 24 h P.I.; for colony forming units (CFU) as compared to the control: neutropenic CD-1 mice, thigh, 12.5 mg/kg IV four doses (1, 3, 5, 7 h P.I.); for colony forming units (CFU) compared with ciprofloxacin: 12.5 mg/kg compound vs 2.5 mg/kg ciprofloxacin, four doses
Protocol: The in vivo activity to determine the CFU following administration of the test compounds was determined on a deep thigh infection caused by Escherichia coli ATCC 25922 in mice. The in vivo efficacy of various compounds was measured using a modified version of the deep-thigh infection model disclosed in Selbie, F R, et al., Br. J. Exp. Pathol. 33 (1952), 315-26 and Zuluaga, A F, et al., BMC Infect. Dis. 6 (2005) 55, each of which is hereby incorporated by reference. The efficacy was determined measuring the number of bacterial colony forming units (“CFU”) of mice injected with Escherichia coli […] on Day 0 following administration of the compounds.
Female CD-1 mice, aged 6-8-weeks, were purchased from local licensed supplier. The mice were allowed to acclimate for 3 days in the animal facility before experimentation began. The mice were then rendered neutropenic by intraperitoneal (“I.P.”) injection of 150 mg/kg cyclophosphamide on Day-4 (4 days prior to the injection of bacteria), and a maintaining dose of 100 mg/kg cyclophosphamide on Day-1 (1 day prior to the injection of bacteria). This regimen conditioned mice to neutropenia during the study. On the day of bacterial challenge (Day 0), Escherichia coli ATCC 29522 was injected into each mouse. Prior to injection, the bacterium was streaked out from −80° C. glycerol stock onto a tryptone soya agar (“TSA”) plate on Day-1. On the day of bacterial challenging (Day 0), single colonies on the agar plate were suspended in sterile saline and the final bacterial concentration was adjusted to approximately 1×10^6 CFU/ml based on turbidity readout of the bacterial solution from a Siemens MicroScan turbidity meter. The bacterial suspension was kept on ice temporarily prior to injection once the desired concentration was achieved.
On Day 0, 100 μl of bacterial suspension as prepared above was injected into the posterior quadriceps muscles of the right thigh. Antibiotic compositions comprising a tested compound in a vehicle were given to mice through tail vein injection at one hours, three hours, five hours and 7 hours post of infection (“P.I.”). The vehicle for each antibiotic composition is 5% (w/v) solutol HS15 in water. At 24 h P.I., all mice were euthanized. Infected thigh muscles for each tested mouse were excised and stored in ice-cold sterile saline for transfer to a Biosafety Level 2 (“BSL-2”) laboratory for subsequent CFU counting. Within one hour following sample collection, the muscles from mice tested with the same antibiotic composition were homogenized by a homogenizer (IKA T10 basic S25), serially diluted in sterile saline, and plated on TSA plates. The plates were incubated at 30° C. for approximately 18 h. The CFU were counted and calculated as CFU/mouse. The animal facility was AAALAC accredited, and the animal welfare in this experiment was in compliance of IACUC.
The number of colony forming units was independently measured in five different mice per composition administered. Each mouse was administered a mass of active compound per kg weight of the mouse four times a day. Mice were administered a composition without a test compound, compositions comprising 2.5 mg(ciprofloxacin)/kg, 12.5 mg(Compound 17)/kg, 12.5 mg(Compound 23)/kg, and 12.5 mg(Compound 24)/kg).

Row | Compound | mouse CLint [1] | MIC [2] [µg/mL] | MIC [3] [µg/mL] | MIC [4] [µg/mL] | MIC [5] [µg/mL] | MIC [6] [µg/mL] | clearance (in vivo) [mL/min/kg] | half-life (in vivo) [h] | colony forming units (CFU) as compared to the control [7] | colony forming units (CFU) compared with ciprofloxacin [7] | T1/2 (in vivo) [h]
1 | CN1CC2CN(C(=O)Nc3cc(F)cc(F)c3)CC(C1)C2(O)c1ccc(-c2ccc(CN)cc2C#N)cn1 [Compound 24, (1R,5S,9r)-9-(5-(4-(aminomethyl)-2-cyanophenyl)pyridin-2-yl)-N-(3,5-difluorophenyl)-9-hydroxy-7-methyl-3,7-diazabicyclo[3.3.1]nonane-3-carboxamide] | >145 | 0.25 (≈ 0.482 µM) | 0.5 (≈ 0.964 µM) | 16 (≈ 30.9 µM) | 32 (≈ 61.7 µM) | 0.25 (≈ 0.482 µM) | 13.9 | 22.5 | decrease the amount of colony forming units |  | 
2 | CN1CC2CN(C(=O)Nc3cc(F)cc(F)c3)CC(C1)C2(O)c1ccc(-c2ccc(CN)cc2C#N)cc1 [Compound 23, (1R,5S,9r)-9-(4′-(aminomethyl)-2′-cyano-[1,1′-biphenyl]-4-yl)-N-(3,5-difluorophenyl)-9-hydroxy-7-methyl-3,7-diazabicyclo[3.3.1]nonane-3-carboxamide] | 105 | 0.25 (≈ 0.483 µM) | 0.5 (≈ 0.966 µM) | 4 (≈ 7.73 µM) | 4 (≈ 7.73 µM) | 0.13 (≈ 0.251 µM) | 9.78 | 22 | decrease the amount of colony forming units | Comparable results to ciprofloxacin | 
3 | CNCc1ccc(-c2ccc(C3(O)C4CN(C)CC3CN(C(=O)Nc3cc(F)cc(F)c3)C4)nc2)c(C#N)c1 [Compound 17, (1R,5S,9r)-9-(5-(2-cyano-4-((methylamino)methyl)phenyl)pyridin-2-yl)-N-(3,5-difluorophenyl)-9-hydroxy-7-methyl-3,7-diazabicyclo[3.3.1]nonane-3-carboxamide] | >145 | 0.22 (≈ 0.413 µM) | 0.45 (≈ 0.845 µM) | 3.56 (≈ 6.68 µM) | 7.12 (≈ 13.4 µM) | 0.22 (≈ 0.413 µM) | 8.86 | 34 | decrease the amount of colony forming units | Comparable results to ciprofloxacin | 34.2

Reference: patent US10654852B2, “Antibiotics and methods of using same” (THE BROAD INSTITUTE, INC., priority 2016, dated 2020)
